Source: patent US7662832B2, “Pyrrolo[2,3-c]pyridine derivatives and processes for the preparation thereof” (priority 2004, dated 2010)
pIC50: −log10 of the molar value. Structures can show the parent of a compound that is named as a salt.

Biological target: Proton Pump (H^+/K^+-ATPase) (Sus scrofa, UniProt P19156)
Assay: Inhibitory effects on proton pump (H^+/K^+-ATPase) activity
Format: biochemical
Conditions: hog gastric vesicles; K^+ stimulated H^+/K^+-ATPase activity; 30 minutes at 37° C.

Sequence of Proton Pump (H^+/K^+-ATPase) (P19156 2-1034 limits assumed): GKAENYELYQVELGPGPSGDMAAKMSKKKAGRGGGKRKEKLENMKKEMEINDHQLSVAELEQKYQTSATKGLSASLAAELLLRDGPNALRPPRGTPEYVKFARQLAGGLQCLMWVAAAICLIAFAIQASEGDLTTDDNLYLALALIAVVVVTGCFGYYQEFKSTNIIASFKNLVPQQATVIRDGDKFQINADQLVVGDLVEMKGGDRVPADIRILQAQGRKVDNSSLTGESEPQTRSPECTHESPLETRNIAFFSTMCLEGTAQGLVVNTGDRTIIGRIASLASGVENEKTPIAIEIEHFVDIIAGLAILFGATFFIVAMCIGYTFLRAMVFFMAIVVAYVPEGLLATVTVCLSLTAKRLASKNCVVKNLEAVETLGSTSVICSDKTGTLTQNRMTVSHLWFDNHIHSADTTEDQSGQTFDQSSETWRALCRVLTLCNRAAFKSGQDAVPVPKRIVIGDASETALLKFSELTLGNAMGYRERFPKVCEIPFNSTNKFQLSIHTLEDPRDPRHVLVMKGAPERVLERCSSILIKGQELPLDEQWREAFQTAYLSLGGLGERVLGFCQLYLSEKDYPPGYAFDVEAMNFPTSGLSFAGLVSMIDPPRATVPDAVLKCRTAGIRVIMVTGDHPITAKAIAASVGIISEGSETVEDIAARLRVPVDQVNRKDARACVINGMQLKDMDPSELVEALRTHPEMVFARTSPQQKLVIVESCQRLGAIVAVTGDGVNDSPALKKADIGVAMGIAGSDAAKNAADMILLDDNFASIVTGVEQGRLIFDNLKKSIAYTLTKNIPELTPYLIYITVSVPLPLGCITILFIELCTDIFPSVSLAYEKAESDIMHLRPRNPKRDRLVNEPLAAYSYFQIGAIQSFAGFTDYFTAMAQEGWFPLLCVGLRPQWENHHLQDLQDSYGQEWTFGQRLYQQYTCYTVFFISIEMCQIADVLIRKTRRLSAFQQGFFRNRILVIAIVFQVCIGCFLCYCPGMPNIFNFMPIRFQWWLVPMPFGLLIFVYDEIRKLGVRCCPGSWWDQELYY
Sequence of Proton Pump (H^+/K^+-ATPase) (P18434 whole entry partner): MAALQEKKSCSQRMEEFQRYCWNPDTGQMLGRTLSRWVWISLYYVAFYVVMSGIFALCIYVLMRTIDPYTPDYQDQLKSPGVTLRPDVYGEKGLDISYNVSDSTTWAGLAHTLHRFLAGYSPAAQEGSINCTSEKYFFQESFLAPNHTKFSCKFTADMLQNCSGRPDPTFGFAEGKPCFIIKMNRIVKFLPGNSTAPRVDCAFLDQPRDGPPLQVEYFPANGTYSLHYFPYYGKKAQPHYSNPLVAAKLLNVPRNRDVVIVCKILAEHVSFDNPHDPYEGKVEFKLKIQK

pIC50	Compound
6.35	Cc1ccc(Cn2c(C)c(C)c3ccnc(COc4ccc(F)cc4)c32)cc1 [Example 5, 7-(4-fluorophenoxymethyl)-2,3-dimethyl-1-(4-methylbenzyl)-1H-pyrrolo[2,3-c]pyridine hydrochloride]
6.39	Cc1ccc(CNCc2cc3c(C)c(C)n(Cc4cccc(F)c4)c3c(N3CCc4ccccc4C3)n2)cc1 [Example 867, N-[7-(3,4-dihydro-1H-isoquinolin-2-yl)-1-(3-fluorobenzyl)-2,3-dimethyl-1H-pyrrolo[2,3-c]pyridin-5-ylmethyl]-4-methylbenzylamine hydrochloride]
6.39	Cc1[nH]c2c(N3CCc4ccccc4C3)nc(C=O)cc2c1C [Example 862, 7-(3,4-dihydro-1H-isoquinolin-2-yl)-2,3-dimethyl-1H-pyrrolo[2,3-c]pyridin-5-carbaldehyde]
6.89	Cc1c(C)n(Cc2ccccc2)c2c(COc3ccc(Cl)cc3)nccc12 [Example 43, 1-benzyl-7-(4-chlorophenoxymethyl)-2,3-dimethyl-1H-pyrrolo[2,3-c]pyridine hydrochloride]
6.70	Cc1c(C)n(Cc2ccc(Cl)s2)c2c(N3CCc4ccccc4C3)nccc12 [Example 514, 1-(5-chlorothiophene-2-ylmethyl)-7-(1,2,3,4-tetrahydroisoquinolin-2-yl)-2,3-dimethyl-1H-pyrrolo[2,3-c]pyridine hydrochloride]
6.50	C=CCn1c(C)c(C)c2cc(C(=O)NCc3cccc(Cl)c3)nc(N3CCc4ccccc4C3)c21 [Example 758, 1-allyl-7-(3,4-dihydro-1H-isoquinolin-2-yl)-2,3-dimethyl-N-(3-chlorobenzyl)-1H-pyrrolo[2,3-c]pyridin-5-carboxamide hydrochloride]
7.16	C#CCn1c(C)c(C)c2ccnc(N3CCc4ccccc4C3)c21 [Example 506, 1-(prop-2-ynyl)-7-(1,2,3,4-tetrahydroisoquinolin-2-yl)-2,3-dimethyl-1H-pyrrolo[2,3-c]pyridine hydrochloride]
6.95	Cc1c(C)n(Cc2ccccc2)c2c(N3CCc4ccccc4C3)nc(C(N)=O)cc12 [Example 745, 1-benzyl-7-(3,4-dihydro-1H-isoquinolin-2-yl)-2,3-dimethyl-1H-pyrrolo[2,3-c]pyridin-5-carboxamide]
7.43	CC(C)=CCn1c(C)c(C)c2cc(C(=O)N3CCN(C)CC3)nc(N3CCc4ccccc4C3)c21 [Example 834, [7-(3,4-dihydro-1H-isoquinolin-2-yl)-2,3-dimethyl-1-(3-methylbut-2-enyl)-1H-pyrrolo[2,3-c]pyridin-5-yl]-(4-methylpiperazin-1-yl)-methanone hydrochloride]
6.47	Cc1c(C)n(CC2CC2)c2c(CCc3ccccc3)nccc12 [Example 453, 1-cyclopropylmethyl-2,3-dimethyl-7-phenethyl-1H-pyrrolo[2,3-c]pyridine hydrochloride]
7.30	C=CCn1c(C)c(C)c2cc(CN3CCN(C)CC3)nc(N3CCc4ccccc4C3)c21 [Example 879, 2-[1-allyl-2,3-dimethyl-5-(4-methylpiperazin-1-ylmethyl)-1H-pyrrolo[2,3-c]pyridin-7-yl]-1,2,3,4-tetrahydroisoquinoline hydrochloride]
6.48	Cc1c(C)n(Cc2cccc(Cl)c2)c2c(N3CCc4ccccc4C3)nc(C#N)cc12 [Example 689, 1-(3-chlorobenzyl)-7-(3,4-dihydro-1H-isoquinolin-2-yl)-2,3-dimethyl-1H-pyrrolo[2,3-c]pyridin-5-carbonitrile]
6.89	Cc1c(C)n(Cc2ccccc2)c2c(N3CCc4ccccc4C3C)nccc12 (stereo not drawn) [Example 556, 2-(1-benzyl-2,3-dimethyl-1H-pyrrolo[2,3-c]pyridin-7-yl)-1-methyl-1,2,3,4-tetrahydroisoquinoline hydrochloride]
6.51	COCCn1c(C)c(C)c2ccnc(NCc3ccccc3C)c21 [Example 213, 1-(2-methoxyethyl)-2,3-dimethyl-7-(2-methylbenzylamino)-1H-pyrrolo[2,3-c]pyridine hydrochloride]
6.85	Cc1c(C)n(Cc2ccccc2F)c2c(CN(C)c3ccc(F)cc3)nccc12 [Example 115, N-[1-(2-fluorobenzyl)-2,3-dimethyl-1H-pyrrolo[2,3-c]pyridin-7-ylmethyl]-N-(4-fluorophenyl)-methylamine hydrochloride]
7.07	Cc1[nH]c2c(N3CCc4ccccc4C3)nc(C(=O)N3CCOCC3)cc2c1C [Example 776, [7-(3,4-dihydro-1H-isoquinolin-2-yl)-2,3-dimethyl-1H-pyrrolo[2,3-c]pyridin-5-yl]-(morpholin-4-yl)-methanone]
6.59	C=CCn1c(C)c(C)c2ccnc(NCc3ccccc3)c21 [Example 176, 1-allyl-7-benzylamino-2,3-dimethyl-1H-pyrrolo[2,3-c]pyridine hydrochloride]
6.61	Cc1nc(Cn2c(C)c(C)c3ccnc(N4CCc5ccc(Cl)cc5C4C)c32)cs1 (stereo not drawn) [Example 538, 7-chloro-2-[2,3-dimethyl-1-(2-methylthiazol-4-ylmethyl)-1H-pyrrolo[2,3-c]pyridin-7-yl]-1-methyl-1,2,3,4-tetrahydroisoquinoline hydrochloride]

pIC50	Compound
7.54	Cc1c(C)n(CC(C)C)c2c(N3CCc4ccccc4C3)nc(C(=O)N3CCNCC3)cc12 [Example 815, [7-(3,4-dihydro-1H-isoquinolin-2-yl)-1-isobutyl-2,3-dimethyl-1H-pyrrolo[2,3-c]pyridin-5-yl]-(piperazin-1-yl)-methanone hydrochloride]
7.80	CCN1CCN(C(=O)c2cc3c(C)c(C)n(CC)c3c(N3CCc4ccccc4C3)n2)CC1 [Example 826, [7-(3,4-dihydro-1H-isoquinolin-2-yl)-1-ethyl-2,3-dimethyl-1H-pyrrolo[2,3-c]pyridin-5-yl]-(4-ethylpiperazin-1-yl)-methanone hydrochloride]
7.37	Cc1c(C)n(Cc2cccc(F)c2)c2c(N3CCc4ccccc4C3)nc(CN3CCOCC3)cc12 [Example 872, 2-[1-(3-fluorobenzyl)-2,3-dimethyl-5-(morpholin-4-ylmethyl)-1H-pyrrolo[2,3-c]pyridin-7-yl]-1,2,3,4-tetrahydroisoquinoline hydrochloride]
6.42	CCc1c(C)c2ccnc(N3CCc4ccccc4C3)c2n1C [Example 609, 2-ethyl-1,3-dimethyl-7-(1,2,3,4-tetrahydroisoquinolin-2-yl)-1H-pyrrolo[2,3-c]pyridine hydrochloride]
6.67	Cc1c(C)n(Cc2cccc(F)c2)c2c(N3CCc4ccccc4C3)nc(CC#N)cc12 [Example 884, [7-(3,4-dihydro-1H-isoquinolin-2-yl)-1-(3-fluorobenzyl)-2,3-dimethyl-1H-pyrrolo[2,3-c]pyridin-5-yl]-acetonitrile hydrochloride]
6.31	COCCn1c(C)c(C)c2ccnc(-c3ccc(SC)cc3)c21 [Example 264, 1-(2-methoxyethyl)-2,3-dimethyl-7-(4-methylsulfanylphenyl)-1H-pyrrolo[2,3-c]pyridine hydrochloride]
6.52	COc1ccc(Cn2c(C)c(C)c3ccnc(N4CCc5cc(F)ccc5C4C)c32)cc1 (stereo not drawn) [Example 566, 6-fluoro-2-[1-(4-methoxybenzyl)-2,3-dimethyl-1H-pyrrolo[2,3-c]pyridin-7-yl]-1-methyl-1,2,3,4-tetrahydroisoquinoline hydrochloride]
6.36	CCn1c(C)c(C)c2cc(C(=O)N3CCN(c4ccccc4)CC3)nc(N3CCc4ccccc4C3)c21 [Example 810, [7-(3,4-dihydro-1H-isoquinolin-2-yl)-1-ethyl-2,3-dimethyl-1H-pyrrolo[2,3-c]pyridin-5-yl]-(4-phenylpiperazin-1-yl)-methanone hydrochloride]
6.91	Cc1ccc(Cn2c(C)c(C)c3ccnc(CCc4ccccc4)c32)cc1 [Example 444, 2,3-dimethyl-1-(4-methylbenzyl)-7-phenethyl-1H-pyrrolo[2,3-c]pyridine hydrochloride]
6.75	C=C=Cn1c(C)c(C)c2ccnc(N3CCc4ccccc4C3)c21 [Example 526, 1-(propa-1,2-dienyl)-7-(1,2,3,4-tetrahydroisoquinolin-2-yl)-2,3-dimethyl-1H-pyrrolo[2,3-c]pyridine hydrochloride]
6.35	COCCn1c(C)c(C)c2ccnc(CN(C)c3ccc(F)cc3)c21 [Example 120, N-(4-fluorophenyl)-N-[1-(2-methoxyethyl)-2,3-dimethyl-1H-pyrrolo[2,3-c]pyridin-7-ylmethyl]-methylamine hydrochloride]
7.60	Cc1c(C)n(Cc2ccccc2)c2c(CN(C)c3ccc(F)cc3)nccc12 [Example 111, N-(1-benzyl-2,3-dimethyl-1H-pyrrolo[2,3-c]pyridin-7-ylmethyl)-N-(4-fluorophenyl)-methylamine hydrochloride]
7.66	C=CCn1c(C)c(C)c2ccnc(N3CCc4ccc(F)cc4C3C)c21 (stereo not drawn) [Example 544, 2-(1-allyl-2,3-dimethyl-1H-pyrrolo[2,3-c]pyridin-7-yl)-7-fluoro-1-methyl-1,2,3,4-tetrahydroisoquinoline hydrochloride]
6.34	COc1ccc(Cn2c(C)c(C)c3ccnc(CCc4ccccc4)c32)cc1 [Example 445, 1-(4-methoxybenzyl)-2,3-dimethyl-7-phenethyl-1H-pyrrolo[2,3-c]pyridine hydrochloride]
6.40	Cc1c(C)n(Cc2ccc(F)cc2)c2c(CCc3ccccc3)nccc12 [Example 455, 1-(4-fluorobenzyl)-2,3-dimethyl-7-phenethyl-1H-pyrrolo[2,3-c]pyridine hydrochloride]
7.10	Cc1[nH]c2c(NCc3ccccc3)nccc2c1C [Example 175, 7-benzylamino-2,3-dimethyl-1H-pyrrolo[2,3-c]pyridine hydrochloride]
6.64	Cc1ccc(Cn2c(C)c(C)c3ccnc(-c4ccc(C)cc4)c32)cc1 [Example 279, 2,3-dimethyl-1-(4-methylbenzyl)-7-(p-tolyl)-1H-pyrrolo[2,3-c]pyridine hydrochloride]
6.59	Cc1ccccc1CNc1nccc2c(C)c(C)n(Cc3ccccc3)c12 [Example 216, 1-benzyl-2,3-dimethyl-7-(2-methylbenzylamino)-1H-pyrrolo[2,3-c]pyridine hydrochloride]
